Laboratory results from patent US8993617B2, “Ire1alpha endonuclease specific inhibitor with cytotoxic activity” (The Board of Trustees of the Leland Stanford Junior …, priority 2010, dated 2015).

Columns and labels:
CD3 positive T cells = test: ex vivo cytotoxicity in peripheral blood T cells (7-aminoactinomycin D); type: cell-based, human; conditions: average of UPN 9-15
Experimental: (§1) FIG. 2E is a line graph showing that STF-083010 is preferentially cytotoxic against human MM cells. MM cells were obtained by CD138+ selection from bone marrow samples from MM patients; lymphocytes were obtained by Ficoll density-gradient centrifugation of peripheral blood samples from control patients, followed by staining with anti CD3, anti CD19 and anti CD56 monoclonal antibodies to differentiate between T-, B- and NK cells. Cells were cultured with the indicated concentrations of STF-083010 for 24 h and cell viability was measured by flow cytometric analysis of Annexin V/Propidium Iodide (MM) or 7-aminoactinomycin D (peripheral blood lymphocytes) stained samples.
(§2) In order to determine anti-myeloma activity of STF-083010, first we treated a panel of MM cell lines with increasing concentrations of the compound in vitro and measured viability by trypan blue exclusion (FIG. 2C). […] Next, we treated RPMI8226 human MM cells grown as tumor xenografts in NSG mice. […] Additionally, we treated fresh CD138+ cells isolated from MM patients and compared the ex vivo toxicity to that of cells from 7 control patients (FIG. 2E, Tables 1,2).
(§3) Human specimen isolation and assays. Bone marrow aspirates were obtained from MM patients after obtaining informed consent according to institutional guidelines. […]

hIre1α [1] = target: T1, hIre1α (Homo sapiens, UniProt O75460); test: cell free Ire1α kinase activity (autophosphorylation, 32P-γATP); type: biochemical; conditions: 0-100 μM, 32P-γATP autophosphorylation
T1 construct: hIre1α protein containing both Ire1 cytoplasmic kinase and RNase domains; made in house
Experimental: FIG. 1F is a graph and gel that show the effect of STF-083010 on cell free Ire1α kinase activity, Upper: hIre1α was incubated with 32P-γATP and increasing concentrations (0-100 μM) of STF-083010. Ire1α autophosphorylation was analyzed by SDS-PAGE, followed by autoradiography to determine the amount of 32P incorporation (32P-hIRE). […] Error bars represent s.e.m. of 3 independent experiments.
Chemical library screening. The screen was performed in the Stanford High-Throughput Bioscience Center (HTBC). hIre1α protein containing both Ire1 cytoplasmic kinase and RNase domains was expressed and purified from baculovirus as described (Niwa M, Sidrauski C, Kaufman R J, Walter P. A role for presenilin-1 in nuclear accumulation of Ire1 fragments and induction of the mammalian unfolded protein response. Cell. 1999; 99:691-702). Autophosphorylation activity was determined with the addition of ^32P-γATP. Endonuclease activity was determined with the addition of radio-labeled HAC1 508 nt RNA substrate synthesized in vitro using α^32P-UTP (Nock S, Gonzalez T, Sidrauski C, Niwa M, Walter P. Purification and activity assays of the catalytic domains of the kinase/endoribonuclease Ire1p from Saccharomyces cerevisiae. Methods Enzymol. 2001; 342:3-10). […] Kinase activity and RNAse cleavage products were quantitated by PAGE and ^32P-γATP or ^32P-UTP autoradiography respectively.

sXBP1 protein = sXBP1 protein production by immunoblotting in MM cell lines; type: cell-based, human; conditions: 300 μM Th and 60 μM STF-083010
Experimental: FIG. 1C is set of a gel electrophoresis images showing STF-083010 inhibiting the production of sXBP1 protein but not the auto-phosphorylation of Ire1α. The left panel indicates MM cell lines that were treated for the indicated times with 300 μM Th and 60 μM STF-083010 and sXBP1 protein was detected by immunoblotting.
(§4) To confirm the molecular target, we analyzed the effect of STF-083010 on endogenous XBP1 mRNA splicing levels in control and ER-stressed RPMI8226 human MM cells (FIG. 1B). […] To establish that this effect was due to a direct interaction between STF-083010 and Ire1α, we analyzed Ire1α enzymatic activity in a cell free system. STF-083010 blocked Ire1α's endonuclease activity (FIG. 1E), without affecting its kinase activity (FIG. 1F).
(§5) Human specimen isolation and assays. Bone marrow aspirates were obtained from MM patients after obtaining informed consent according to institutional guidelines. CD138+ plasma cells were selected by positive magnetic bead selection (StemCell Technologies, Vancouver, Canada) either after isolation of nucleated cells (patients 1-4) or directly (patients 5-8). Peripheral blood cells were obtained by Ficoll-Hypaque density centrifugation from separate control patients. Cell culture, reporter assays, RT-PCR, Western blotting, and bioluminescent imaging.

[2] = system: CD138+ multiple myeloma cells; test: ex vivo cytotoxicity in CD138+ cells from MM patients (Annexin V/Propidium Iodide); type: cell-based, human
Description: MM cells were obtained by CD138+ selection from bone marrow samples from MM patients; lymphocytes were obtained by Ficoll density-gradient centrifugation of peripheral blood samples from control patients, followed by staining with anti CD3, anti CD19 and anti CD56 monoclonal antibodies to differentiate between T-, B- and NK cells.
Next, we treated RPMI8226 human MM cells grown as tumor xenografts in NSG mice. […] Additionally, we treated fresh CD138+ cells isolated from MM patients and compared the ex vivo toxicity to that of cells from 7 control patients (FIG. 2E, Tables 1,2).
as §5

CD56 positive NK cells = test: ex vivo cytotoxicity in peripheral blood NK cells (7-aminoactinomycin D); type: cell-based, human; conditions: average of UPN 9-15
Experimental: as §1, §2, §3

hIre1α [3] = target: T1, hIre1α; test: cell free Ire1α RNase (endonuclease) activity, HAC1 mRNA cleavage; type: biochemical; conditions: hIre1 with 32P HAC1 508 nt transcript, 30 min, 1-100 μM; read-out: half-maximal inhibition of HAC1 mRNA processing
Experimental: FIG. 1E is a gel electrophoresis image and a line graph showing the STF-083010 effect on cell free Ire1α RNase (endonuclease) activity. […] HAC1 mRNA cleavage reaction was analyzed by separation of products on denaturing polyacrylamide gels, followed by autoradiography. The line graph is the quantitation of HAC1 mRNA processing showing half-maximal inhibition at approximately 25 μM. Error bars represent s.e.m. of 3 independent experiments.
Chemical library screening. […] Autophosphorylation activity was determined with the addition of ^32P-γATP. Endonuclease activity was determined with the addition of radio-labeled HAC1 508 nt RNA substrate synthesized in vitro using α^32P-UTP (Nock S, Gonzalez T, Sidrauski C, Niwa M, Walter P. Purification and activity assays of the catalytic domains of the kinase/endoribonuclease Ire1p from Saccharomyces cerevisiae. Methods Enzymol. 2001; 342:3-10). […] Kinase activity and RNAse cleavage products were quantitated by PAGE and ^32P-γATP or ^32P-UTP autoradiography respectively.

CD19 positive B cells = test: ex vivo cytotoxicity in peripheral blood B cells (7-aminoactinomycin D); type: cell-based, human; conditions: average of UPN 9-15
Experimental: as §1, §2, §3

Ire1α = target: T2, Ire1α (Homo sapiens, UniProt O75460); test: Ire1α auto-phosphorylation by immunoblot in RPMI8226 cells; type: cell-based; conditions: 300 μM Th and 60 μM STF-083010
T2 construct: RPMI8226 cells were treated with 300 μM Th and 60 μM STF-083010; endogenous in cells; host or cells: RPMI8226 human multiple myeloma cells
Experimental: FIG. 1D is a set of gel electrophoresis images in which RPMI8226 cells were treated with 300 μM Th and 60 μM STF-083010 for the indicated times and the levels of phosphorylated and total Ire1α were detected using specific antibodies.

XBP1 mRNA splicing = test: endogenous XBP1 mRNA splicing by RT-PCR in ER-stressed RPMI8226 cells; type: cell-based, human
Experimental: FIG. 1B is a gel electrophoresis image showing STF-083010 inhibiting endogenous XBP1 mRNA splicing. RPMI8226 cells were treated with 300 μM thapsigargin (Th), 60 μM STF-083010 or both for indicated amount of time and the relative XBP1 splicing was determined by RT-PCR. Solid arrow indicates the unspliced and broken arrow indicates the spliced form.
as §4, §5

[4] = system: RPMI8226, MM.1S and MM.1R MM cells; test: in vitro cytotoxicity in MM cell lines, trypan blue exclusion; type: cell-based, human; conditions: 0, 30 or 60 μM, viable cell number measured daily
Experimental: FIG. 2C is a set of line graphs showing in vitro cytotoxicity of STF-083010. RPMI8226, MM.1S and MM.1R MM cells that were treated with 0, 30 or 60 μM of STF-083010 and viable cell number was measured daily by the trypan blue exclusion method.
as §2

RPMI8226 MM cells = test: RPMI8226 subcutaneous tumor xenografts in NOD/SCID/IL2Rγ null mice; type: in vivo; conditions: intraperitoneal, 30 mg/kg once weekly for 2 weeks (d1, d8)
Experimental: FIG. 2D is a line graph showing the antitumor activity of STF-083010 in vivo. RPMI8226 MM cells were established as subcutaneous tumor xenografts in NOD/SCID/IL2Rγ null mice. When tumors reached an average volume of 150 mm3, 2 groups of 5 mice each were treated with 30 mg/kg STF-083010 or drug vehicle once weekly for 2 weeks.
as §2

[5] = histology (H&E) of normal mouse tissues after treatment; type: in vivo; conditions: 60 mg/kg×1 and 30 mg/kg×2
Experimental: FIG. 3 is a set of images of the H&E stained sections of normal mouse tissues and RPMI8226 xenograft tumors treated with drug vehicle (16% chremophor in saline) or 30 mg/kg STF-083010 weekly for two weeks.

XBP1-luciferase reporter = test: XBP1-luciferase bioluminescence in transgenic XBP1-luc mice; type: in vivo; conditions: i.p.
Experimental: FIG. 2A is a bar graph showing that STF-083010 blocks bortezomib-induced XBP1 activity in vivo. Transgenic XBP1-luc mice were injected i.p. with drug vehicle (16% chremophor), 1 mg/kg bortezomib, or 1 mg/kg bortezomib and 60 mg/kg STF-083010 and bioluminescence was measured after 24 h. […] Error bars show s.e.m. of at least 4 animals.
FIG. 2B is a set of images of representative mice before and after treatment.
as §5

T1 sequence (O75460 465-977 limits assumed): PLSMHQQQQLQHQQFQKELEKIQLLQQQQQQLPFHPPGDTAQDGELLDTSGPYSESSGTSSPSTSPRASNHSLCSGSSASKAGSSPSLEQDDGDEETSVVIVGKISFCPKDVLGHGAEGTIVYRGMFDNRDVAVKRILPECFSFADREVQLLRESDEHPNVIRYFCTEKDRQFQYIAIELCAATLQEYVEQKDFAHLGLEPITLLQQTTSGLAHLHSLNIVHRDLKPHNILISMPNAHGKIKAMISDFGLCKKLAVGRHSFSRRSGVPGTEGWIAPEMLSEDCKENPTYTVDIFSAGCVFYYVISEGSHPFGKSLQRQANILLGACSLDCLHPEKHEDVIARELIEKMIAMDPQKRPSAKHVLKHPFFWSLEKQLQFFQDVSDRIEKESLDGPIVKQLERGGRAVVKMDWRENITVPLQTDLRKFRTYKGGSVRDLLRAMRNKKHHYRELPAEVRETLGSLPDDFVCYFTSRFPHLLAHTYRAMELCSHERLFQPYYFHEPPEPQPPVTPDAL
T2 sequence (O75460 19-977): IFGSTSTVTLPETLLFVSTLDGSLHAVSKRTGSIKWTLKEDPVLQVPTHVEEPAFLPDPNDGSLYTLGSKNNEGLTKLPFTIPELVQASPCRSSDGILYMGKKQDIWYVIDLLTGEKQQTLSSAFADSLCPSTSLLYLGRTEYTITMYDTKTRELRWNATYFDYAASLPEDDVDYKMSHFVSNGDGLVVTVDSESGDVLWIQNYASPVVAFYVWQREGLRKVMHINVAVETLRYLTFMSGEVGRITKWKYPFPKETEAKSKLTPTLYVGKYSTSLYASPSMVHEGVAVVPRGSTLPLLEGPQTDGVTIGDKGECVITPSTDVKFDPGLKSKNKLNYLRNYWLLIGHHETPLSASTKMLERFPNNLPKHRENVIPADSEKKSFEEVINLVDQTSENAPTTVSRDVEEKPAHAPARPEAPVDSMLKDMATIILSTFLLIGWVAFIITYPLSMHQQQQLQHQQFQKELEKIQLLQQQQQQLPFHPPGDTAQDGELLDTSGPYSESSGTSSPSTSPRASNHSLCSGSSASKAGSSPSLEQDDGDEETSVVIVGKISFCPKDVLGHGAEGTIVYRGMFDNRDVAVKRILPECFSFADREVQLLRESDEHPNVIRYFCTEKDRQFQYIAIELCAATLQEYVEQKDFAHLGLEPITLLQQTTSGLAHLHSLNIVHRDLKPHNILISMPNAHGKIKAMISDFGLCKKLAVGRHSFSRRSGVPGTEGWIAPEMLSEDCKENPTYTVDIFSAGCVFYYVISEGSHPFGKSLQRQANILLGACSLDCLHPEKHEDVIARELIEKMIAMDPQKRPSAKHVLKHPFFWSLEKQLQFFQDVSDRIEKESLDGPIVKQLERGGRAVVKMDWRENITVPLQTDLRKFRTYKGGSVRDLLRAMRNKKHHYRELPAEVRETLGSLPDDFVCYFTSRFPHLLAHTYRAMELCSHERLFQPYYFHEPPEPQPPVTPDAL

SMILES: O=S(=O)(/N=C/c1c(O)ccc2ccccc12)c1cccs1 [STF-083010, (E)-N-((2-hydroxynaphthalen-1-yl)methylene)thiophene-2-sulfonamide]
- LD50 (24 h) CD3 positive, AVERAGE (CD3 positive T cells): 136.6 µM
- Ire1α kinase activity during co-incubation (hIre1α [1]): no significant change
- production of active sXBP1 protein (sXBP1 protein): inhibited production of active sXBP1 protein
- LD50 24 h in multiple myeloma cells, AVERAGE ([2]; average of UPN 1-8): 27.8 µM
- cytotoxicity to CD138+ cells compared to B (CD19+), T (CD3+), and NK (CD56+) cells ([2]; ex vivo, 24 h): selectively cytotoxic
- LD50 (24 h) CD56 positive, AVERAGE (CD56 positive NK cells): 71.3 µM
- IC50 (hIre1α [3]): ~25 µM
- LD50 (24 h) CD19 positive, AVERAGE (CD19 positive B cells): 73.1 µM
- Ire1α kinase activity, immunoblot of autophosphorylated Ire1α (Ire1α): did not inhibit
- XBP1 mRNA splicing induced by thapsigargin (XBP1 mRNA splicing; RPMI8226 cells, 300 μM thapsigargin (Th), 60 μM STF-083010): almost completely blocked
- XBP1 splicing activated by other types of ER stress (XBP1 mRNA splicing; tunicamycin treatment, glucose deprivation or severe hypoxia (data not shown)): inhibited XBP1 splicing
- viability of MM cell lines [4]: cytostatic and cytotoxic activity in a dose- and time-dependent manner
- growth of tumor xenografts (RPMI8226 MM cells): significantly inhibited
- histologic effects after treatment [5]: did not find any histologic effects
- XBP1-luciferase bioluminescent signal when injected with bortezomib (XBP1-luciferase reporter; 1 mg/kg bortezomib and 60 mg/kg STF-083010, 24 h): no increase in bioluminescent signal

SMILES: C/C=C(/C)C(=O)O[C@H]1C(C)=C2[C@H]([C@@H]1OC(=O)CCCCCCC)[C@@](C)(OC(C)=O)C[C@H](OC(=O)CCC)[C@@]1(O)[C@H]2OC(=O)[C@@]1(C)O [thapsigargin, reference compound]
- XBP1 splicing on incubation with thapsigargin alone (XBP1 mRNA splicing; RPMI8226 cells, 300 μM thapsigargin): resulted in XBP1 splicing

SMILES: CC(C)C[C@H](NC(=O)[C@H](Cc1ccccc1)NC(=O)c1cnccn1)B(O)O [bortezomib, reference compound]
- XBP1-luciferase bioluminescent activity after bortezomib alone (XBP1-luciferase reporter; 1 mg/kg bortezomib, 24 h): commensurate increase
